Patent publication US6620850B2, “Materials and methods for treatment of neurological disorders involving overactivation of glutamatergic ionotropic receptors” (University of Florida, priority 2001, dated 2003)

Legend:
[1] = system: Parkinson's disease; conditions: oral administration, patients; cited from earlier work
[2] = system: GluR-mediated miniature excitatory postsynaptic currents (mEPSCs) in hippocampal neurons; test: mEPSCs in cultured rat hippocampal neurons, whole-cell patch clamp (normoxia); type: cell-based; conditions: for effect on GluR-mediated mEPSCs: cultured hippocampal neurons, normoxia, in presence of MK-801
[3] = versus 55-60 μM in healthy patients; cited from earlier work
[4] = system: cocaine dependence; conditions: orally administered, patients; cited from earlier work

N[C@H](Cc1ccccc1)C(=O)O [D-phenylalanine]
clinical benefit in Parkinson's disease [1]: conferred some benefit

N[C@@H](Cc1ccccc1)C(=O)O [L-Phe, L-phenylalanine]
effect on frequency of mEPSCs (concentration-dependence) ([2]; L-Phe 0.1-3 mM, normalized to control, 5 to 8 cells, P<0.01 compared to control): concentration-dependence of attenuation of the frequency of mEPSCs
effect on GluR-mediated mEPSCs [2]: significantly and reversibly attenuate
blood concentration of L-Phe causing phenylketonuria (PKU) [3]: > 1200 µM

N[C@@H](Cc1c[nH]c2ccccc12)C(=O)O [L-Trp, L-Tryptophan]
effect on GluR-mediated mEPSCs [2]: significantly and reversibly attenuate

N[C@@H](Cc1ccc(O)cc1)C(=O)O [L-Tyr, L-tyrosine]
effect on GluR-mediated mEPSCs [2]: significantly and reversibly attenuate

N[C@@H](Cc1ccc(O)cc1)C(=O)O [tyrosine]
clinical benefit in cocaine dependence [4]: did not confer a benefit
